The values below are quoted from earlier work in US9119805B2, “Therapy and prevention of problem drinking” (THE UNIVERSITY OF SYDNEY, priority 2009, dated 2015).

Starred links: 1 amine or outer side, 2 acyl side, 3 side chain; linkers in the order of their positions; H or OH if unused. Positions of bridges follow the written chain, without caps; N, C: chain ends. Residues, ends and D or L forms follow the SMILES beside them. X1 = O=C(CCC[*:2])[*:1]

For data set [1] the following is noted: animal tests; cited from earlier work.
For data set [2] the following is noted: compared with exogenously applied oxytocin; cited from earlier work.
Data set [3] has as its system vasopressin receptor. As to conditions: cited from earlier work.
Data set [4] concerns dependent drinkers. As to conditions: cited from earlier work.
In data set [5] the target is oxytocin receptor (Homo sapiens, UniProt P30559). The note with it: compared to native oxytocin; cited from earlier work.
Sequence of oxytocin receptor (P30559 whole entry): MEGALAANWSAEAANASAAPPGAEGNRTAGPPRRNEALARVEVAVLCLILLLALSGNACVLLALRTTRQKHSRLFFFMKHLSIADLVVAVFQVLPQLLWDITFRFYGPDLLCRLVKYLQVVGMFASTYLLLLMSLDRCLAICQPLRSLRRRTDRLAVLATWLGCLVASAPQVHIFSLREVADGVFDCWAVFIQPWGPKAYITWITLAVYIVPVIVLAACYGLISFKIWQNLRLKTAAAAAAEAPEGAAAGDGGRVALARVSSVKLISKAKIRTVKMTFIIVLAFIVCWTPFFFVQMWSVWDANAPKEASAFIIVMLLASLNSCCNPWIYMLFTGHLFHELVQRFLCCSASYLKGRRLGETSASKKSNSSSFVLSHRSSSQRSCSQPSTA

With `Cc1cc(C(=O)N2Cc3cnn(C)c3Nc3ccccc32)ccc1CNC(=O)N1CCN(Cc2cc(O)cc(O)c2)CC1` [WAY-267,464], in data set [1], the anti-depressant effect entry is “no apparent anti-depressant effect” and the centrally-mediated oxytocinergic actions entry is given as “anxiolytic effects”. Further, the “extent of crossing the blood-brain-barrier” value in data set [2] was “significantly greater extent than exogenously applied oxytocin”. Also, the “affinity for the vasopressin receptor” value in data set [3] is reported as “negligible affinity”. Take `CC1(C)O[C@@H]2[C@@H](CO[C@@]3(COS(N)(=O)=O)OC(C)(C)O[C@@H]23)O1` [Topiramate]: the “proportion of subjects with 28 consecutive days of abstinence or non-hazardous/harmful drinking” value in data set [4] (short-term abstinence) is “increased the proportion”.

Turning to `O=C1CC[C@@]2(O)[C@H]3Cc4ccc(O)c5c4[C@@]2(CCN3CC2CC2)[C@H]1O5` [naltrexone], the reduction of relapse result in data set [4] (oral, during the first 3 months) is “about 36%”. As for `CC(=O)NCCCS(=O)(=O)O` [acamprosate], the patients continuously abstinent result in data set [4] (after 6 months, placebo 23%) is recorded as “about 36%”. Take `CC[C@H](C)[C@@H]1NC(=O)[C@H](Cc2ccc(OC)cc2)NC(=O)CCCSC[C@@H](C(=O)N2CCC[C@H]2C(=O)N[C@@H](CC(C)C)C(=O)NCC(N)=O)NC(=O)[C@H](CC(N)=O)NC(=O)[C@H](CCC(N)=O)NC1=O` [carbetocin, 1-deamino-1-monocarba-[2-O-methyltyrosine]-oxytocin] (Y(Me)IQNCPLG-NH2; linker N-5 via X1): the duration of activity entry in data set [5] is “long-lasting activity”.
